Measured values from ChEMBL document CHEMBL3228021, “Studies on analgesic agents. 1.1a Preparation of 1,2-diphenyl-2-(4-substituted 1-piperazinyl)ethanol derivatives and structure-activity relationships” (J Med Chem, 1979).

Tests used:
[1] = system: Mus musculus; test: Analgesic activity in sc dosed ddN mouse assessed as inhibition of light radiation-induced thermal pain by D'Amour-Smith method; type: functional
[2] = system: Mus musculus; test: Analgesic activity in po dosed ddN mouse assessed as inhibition of phenylquinone-induced writhing; type: functional
[3] = Acute lethal toxicity in po dosed mouse measured after 1 week; type: organism-based; settings: in vivo
[4] = Toxicity in po dosed Wistar rat tail pressing-induced mechanical pain model; type: organism-based; settings: in vivo
[5] = system: Mus musculus; test: Toxicity in sc dosed ddN mouse light radiation-induced thermal pain model; type: organism-based; settings: in vivo
[6] = Acute lethal toxicity in sc dosed mouse measured after 1 week; type: organism-based; settings: in vivo
[7] = Acute lethal toxicity in sc dosed rat measured after 1 week; type: organism-based; settings: in vivo
[8] = Acute lethal toxicity in po dosed rat measured after 1 week; type: organism-based; settings: in vivo
[9] = system: Rattus norvegicus; test: Analgesic activity in po dosed Wistar rat assessed as inhibition of tail pressing-induced mechanical pain by Haffner method; type: functional
[10] = system: Mus musculus; test: Analgesic activity in po dosed ddN mouse assessed as inhibition of light radiation-induced thermal pain by D'Amour-Smith method; type: functional
[11] = system: Rhesus monkey; test: Toxicity in morphine-dependent monkey assessed as induction of physical dependence liability by single dose suppression test; type: organism-based, Macaca mulatta; settings: in vivo
[12] = species: Rattus norvegicus; test: Toxicity in morphine-dependent rat assessed as induction of physical dependence liability by substitution test; type: organism-based; settings: in vivo
[13] = species: Mus musculus; test: Toxicity in mouse assessed as induction of physical dependence liability by jumping test; type: organism-based; settings: in vivo
[14] = Mus musculus, ddN, sc, read-out: ED50

| SMILES | ED50 [1, 14] [mg/kg] | ED50 [2] [mg/kg] | further results |
| --- | --- | --- | --- |
| Cc1ccc(CN2CCN(C(c3ccccc3)C(O)c3ccccc3)CC2)cc1.Cl.O (racemic) | > 160 | 43.7 |  |
| Cl.OC(c1ccccc1)C(c1ccccc1Cl)N1CCN(Cc2ccc3c(c2)OCO3)CC1 (racemic) | > 160 |  |  |
| COc1ccc(CN2CCN([C@H](c3ccccc3Cl)[C@H](O)c3ccccc3)CC2)cc1.Cl | 58.4 |  |  |
| COc1ccc(CN2CCN(C(c3ccccc3)C(O)c3ccccc3Cl)CC2)cc1.Cl (racemic) | > 160 |  |  |
| Cc1c(N(C)C)c(=O)n(-c2ccccc2)n1C [AMINOPYRINE] |  |  | LD50 at 168 h [3]: 523 mg/kg; LD50 [4]: > 2560 mg/kg; ED50 [5]: > 640 mg/kg; LD50 at 168 h [6]: 385 mg/kg; LD50 at 168 h [7]: 511 mg/kg; LD50 at 168 h [8]: > 2000 mg/kg |
| COc1ccc(CN2CCN(C(c3ccccc3Cl)C(O)c3ccccc3)CC2)cc1.Cl (racemic; 53) |  |  | ED50 [1]: >160 mg/kg |
| COc1ccc(CN2CCN([C@@H](c3ccccc3Cl)[C@@H](O)c3ccccc3)CC2)cc1.Cl | > 160 |  |  |
| COc1ccc2c3c1O[C@H]1[C@@H](O)C=C[C@H]4[C@@H](C2)N(C)CC[C@@]341.COc1ccc2c3c1O[C@H]1[C@@H](O)C=C[C@H]4[C@@H](C2)N(C)CC[C@@]341.O.O=P(O)(O)O.O=P(O)(O)O [CODEINE PHOSPHATE] | 28.1 | 8.21 | LD50 at 168 h [3]: 574 mg/kg; ED50 [9]: 196 mg/kg; LD50 at 168 h [6]: 271 mg/kg; ED50 [10]: 98.4 mg/kg; LD50 at 168 h [7]: 365 mg/kg; LD50 at 168 h [8]: 1180 mg/kg |
| COc1ccc(CN2CCN(C(c3cccc(C)c3)C(O)c3ccccc3)CC2)cc1.Cl (racemic) | 28 | 27.7 |  |
| COc1ccccc1N1CCN(C(c2ccccc2)C(O)c2ccccc2)CC1 (racemic) | > 160 |  |  |
| COc1ccc(CN2CCN([C@@H](c3ccccc3)[C@@H](O)c3ccccc3)CC2)cc1 | 13.5 |  |  |
| COc1ccc(CN2CCN(C(c3ccccc3)C(O)c3ccc(Cl)cc3)CC2)cc1.Cl (racemic) | > 160 |  |  |
| COc1ccccc1CN1CCN(C(c2ccccc2)C(O)c2ccccc2)CC1.Cl.O (racemic) | > 160 |  |  |
| COc1ccccc1CN1CCN(C(c2ccccc2Cl)C(O)c2ccccc2)CC1.Cl.O (racemic) | > 160 |  |  |
| COc1ccc(CN2CCN(C(c3cccc(OC)c3)C(O)c3ccccc3)CC2)cc1.Cl (racemic) | > 160 |  |  |
| CCOc1ccc(CN2CCN(C(c3ccccc3Cl)C(O)c3ccccc3)CC2)cc1.Cl (racemic) | > 160 |  |  |
| Cl.OC(c1ccccc1)C(c1ccccc1)N1CCN(Cc2ccccc2)CC1 (racemic) | > 160 | 20.6 |  |
| COc1ccc(CN2CCN(C(c3ccccc3)C(O)c3ccccc3OC)CC2)cc1.Cl (racemic) | > 160 |  |  |
| COc1cccc(CN2CCN(C(c3ccccc3C)C(O)c3ccccc3)CC2)c1.Cl.O (racemic) | > 160 |  |  |
| Cl.OC(c1ccccc1)C(c1ccccc1)N1CCN(C2CCCCC2)CC1 (racemic) |  |  | ED50 [5]: > 80 mg/kg |
| COc1ccc(CN2CCN(C(c3ccc([N+](=O)[O-])cc3)C(O)c3ccccc3)CC2)cc1.Cl (racemic) |  | 10.2 | ED50 [1]: 8.11 mg/kg |
| COc1ccc(CN2CCN(C(c3ccccc3)C(O)c3ccc(OC)cc3)CC2)cc1.Cl.O (racemic) | > 160 |  |  |
| COc1ccc(CN2CCN(C(c3ccccc3)C(O)c3ccc(O)cc3)CC2)cc1.Cl (racemic) | > 160 |  |  |
| COc1ccc(CN2CCN(C(c3ccccc3)C(O)c3ccc(C)cc3)CC2)cc1.Cl (racemic) | 31.7 | 85.9 |  |
| COc1ccc(CN2CCN(C(c3ccccc3Cl)C(O)c3ccccc3)CC2)cc1.Cl (racemic; 38) |  | 20.9 | LD50 at 168 h [3]: 509 mg/kg; Activity [11]: Non-toxic; ED50 [9]: 228 mg/kg; LD50 at 168 h [6]: 431 mg/kg; Activity [12]: Non-toxic; Activity [13]: Non-toxic; ED50 [1]: 79 mg/kg; ED50 [10]: 165 mg/kg; LD50 at 168 h [7]: 584 mg/kg; LD50 at 168 h [8]: > 3200 mg/kg |
| COc1ccc(CN2CCN(C(c3cccc(Cl)c3)C(O)c3ccccc3)CC2)cc1.Cl (racemic) | 48.1 | 27.2 |  |

| SMILES | ED50 [1, 14] [mg/kg] | ED50 [2] [mg/kg] | further results |
| --- | --- | --- | --- |
| COc1ccc(CN2CCN([C@H](c3ccccc3)[C@H](O)c3ccccc3)CC2)cc1 | 40.1 |  |  |
| OC(c1ccccc1)C(c1ccccc1)N1CCN(CCc2ccccc2)CC1 (racemic) | > 160 |  |  |
| COc1ccc(CN2CCN(C(c3ccc(Cl)cc3)C(O)c3ccc(C)cc3)CC2)cc1.Cl (racemic) | > 160 |  |  |
| CCC(=O)OC(c1ccccc1)C(c1ccccc1)N1CCN(Cc2ccc(OC)cc2)CC1.Cl (racemic) | 73.1 | 44.3 |  |
| COc1cccc(CN2CCN(C(c3ccccc3Cl)C(O)c3ccccc3)CC2)c1.Cl (racemic) | > 160 |  |  |
| CCC(=O)OC(c1ccccc1)C(c1ccccc1Cl)N1CCN(Cc2ccc(OC)cc2)CC1.Cl (racemic) | > 160 | 90 |  |
| COc1ccc(CN2CCN(C(c3ccccc3)C(O)c3ccccc3)CC2)cc1 (racemic) | > 160 | 31.1 | ED50 [5]: 15.2 mg/kg |
| COc1ccc(CN2CCN(C(c3ccc(OC)cc3)C(O)c3ccccc3)CC2)cc1.Cl (racemic) | 37.4 | 24.1 |  |
| Cl.OC(c1ccccc1)C(c1ccccc1Cl)N1CCN(Cc2ccc(OCc3ccccc3)cc2)CC1 (racemic) | > 160 |  |  |
| COc1ccc(CN2CCN(C(c3ccccc3)C(O)c3cccc(Cl)c3)CC2)cc1.Cl.O (racemic) | > 160 |  |  |
| Cl.O=[N+]([O-])c1ccc(CN2CCN(C(c3ccccc3)C(O)c3ccccc3)CC2)cc1 (racemic) | > 160 | 40 |  |
| COc1ccc(CN2CCN(C(c3ccccc3OC)C(O)c3ccccc3)CC2)cc1.Cl (racemic) |  |  | Activity [12]: Non-toxic; Activity [13]: Non-toxic |
| COc1ccc(CN2CCN(C(c3ccc(Cl)cc3)C(O)c3ccccc3)CC2)cc1.Cl (racemic) | 39.7 | 16.4 |  |
| COc1ccc(CN2CCN(C(c3ccccc3OC)C(O)c3ccc(C)cc3)CC2)cc1.Cl (racemic) | > 160 |  |  |
| COc1ccc(CN2CCN(C(c3ccccc3)C(OC(C)=O)c3ccccc3)CC2)cc1.Cl (racemic) | 80 | 46.3 |  |
| COc1ccc(CN2CCN(C(c3ccccc3Cl)C(O)c3ccccc3)CC2)cc1OC.Cl (racemic) | > 160 |  |  |
| OC(c1ccccc1)C(c1ccccc1)N1CCN(c2ccccn2)CC1 (racemic) | > 160 |  |  |
| COc1cc(CN2CCN(C(c3ccccc3Cl)C(O)c3ccccc3)CC2)cc(OC)c1OC.Cl.O (racemic) | > 160 |  |  |
| COc1ccc(CN2CCN(C(c3ccccc3Cl)C(O)c3ccc(C)cc3)CC2)cc1.Cl (racemic) | > 160 |  |  |
| COc1ccc(CN2CCN(C(c3ccccc3)C(O)c3ccccc3C)CC2)cc1.Cl (racemic) | 120 | 100 |  |
| COc1ccc(CN2CCN(C(c3ccccc3C)C(O)c3ccccc3)CC2)cc1.Cl (racemic; 54) |  |  | ED50 [1]: >160 mg/kg |
| COc1ccc(CN2CCN(C(c3ccc(C)cc3)C(O)c3ccccc3)CC2)cc1.Cl (racemic) | 14.1 | 16.8 |  |
| COc1ccc(CN2CCN(C(c3ccccc3C)C(O)c3ccccc3)CC2)cc1.Cl (racemic; 41) |  |  | Activity [12]: Non-toxic; Activity [13]: Non-toxic; ED50 [1]: 65.2 mg/kg |
| COc1ccc(CN2CCN(C(c3ccc([N+](=O)[O-])cc3)C(O)c3ccccc3)CC2)cc1.Cl (stereo in doubt; 55) |  |  | ED50 [1]: >160 mg/kg |
| OC(c1ccccc1)C(c1ccccc1)N1CCN(c2ccccc2Cl)CC1 (racemic) | > 160 |  |  |
| COc1ccc(CN2CCN(C(c3ccccc3)C(O)c3cccc(C)c3)CC2)cc1.Cl (racemic) | 26.4 | 18.5 |  |
